Experimental data as given in PubChem BioAssay (NCI).
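Values below derive from 48-hour exposures of cells grown in 96-well plates, with endpoints linearly interpolated between the two concentrations bracketing the appropriate inhibition level. Definition used: TGI = concentration required for complete inhibition of growth.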 Where a SMILES comes first, the peptide text is derived from it. The star is where a group is joined. Boc = CC(C)(C)OC(=O)*; OBn = c1ccc(CO*)cc1; Bn = c1ccc(C*)cc1

How the values were obtained:
Assay in all cases: inhibition of tumour cell growth, NCI panel, 48 h
SNB-19 CNS = system: SNB-19 CNS
NCI-H522 lung = system: NCI-H522 lung
UACC-62 melanoma = system: UACC-62 melanoma
U251 CNS = system: U251 CNS
LOX IMVI melanoma = system: LOX IMVI melanoma
NCI-H226 lung = system: NCI-H226 lung
T-47D breast = system: T-47D breast
PC-3 prostate = system: PC-3 prostate
RPMI-8226 leukemia = system: RPMI-8226 leukemia

SMILES | TGI (SNB-19 CNS) [µM] | TGI (NCI-H522 lung) [µM] | TGI (UACC-62 melanoma) [µM] | TGI (U251 CNS) [µM] | TGI (LOX IMVI melanoma) [µM] | TGI (NCI-H226 lung) [µM] | TGI (T-47D breast) [µM] | TGI (PC-3 prostate) [µM] | TGI (RPMI-8226 leukemia) [µM]
CN(CCN(C)Cc1ccc(Cl)c(Cl)c1)CCN1CCCC1 | > 100 | 46.9 | 7.47 | > 100 | > 58.6 | 94.9 | > 100 | > 100 | 32.4
CC(C)CC(NC(=O)C(CCC(=O)OCc1ccccc1)NC(=O)OC(C)(C)C)C(=O)NC(COCc1ccccc1)C(=O)NC(Cc1ccccc1)C(=O)O (stereo not drawn) (Boc-E(OBn)LS(Bn)F-OH; configuration not given here) | > 100 |  | > 100 | > 100 |  | > 100 |  | > 100 | > 100
COc1cc(C(C)(C)C)c(OC(=O)/C=C/C(=O)O/C=C/[N+](=O)[O-])c(C(C)(C)C)c1 |  | 85.7 | > 100 | > 100 | 75.6 | > 100 | > 100 |  | > 100
NC(=O)NC1=NCCC(=O)N1CCc1c[nH]c2ccccc12 | 54.6 | 52.1 | 36.9 | > 100 | 26.8 | 39.9 | 65.5 | 28.3 | 50.6
CC(C)OCC(O)COc1cc(=O)oc2ccccc12 (stereo not drawn) | > 100 | > 100 | > 100 | > 100 | > 100 |  | > 100 | > 100 | > 100
O=c1[nH]/c(=C/c2cccs2)c(=O)[nH]/c1=C/c1ccc(OCc2ccccc2)cn1 | > 46.2 | 0.0998 | 40.3 | 23.8 | > 100 | 33.3 |  | > 44.4 | > 43.2
C/C(=C/CC[C@](C)(OC1OC(CO)C(O)C(O)C1OC1OC(C)C(O)C(O)C1O)[C@H]1CC[C@]2(C)[C@@H]1CC[C@@H]1[C@@]3(C)CC[C@H](O)C(C)(C)[C@@H]3C[C@H](O)[C@]12C)CO (stereo partly drawn) | > 100 | > 100 | > 100 | > 100 | > 100 | > 100 | > 100 | > 100 | > 100
Oc1cccc(-c2cc(=S)ss2)c1 | 36.4 | 20.4 | 38.2 | 28.5 | 33.3 | 41 |  | 28.3 | 5.91
CC1CCC(O)/C=C/C(=O)OC(C)C(O)/C=C/C(=O)O1 (stereo not drawn) | > 100 | > 58.6 | > 100 | > 100 | > 100 | > 100 | > 100 | > 100 | > 100
COC(CO[Si](C)(C)N[Si](C)(C)OCC(OC)c1ccccc1)c1ccccc1 (stereo not drawn) | > 100 |  | > 100 | > 100 | > 100 | > 100 | > 100 | > 100 | > 100
CCOC(=O)n1c2ccccc2c2c(O)c(OC)c3c(c21)C(=O)NC3=O | > 100 | > 100 | > 100 | > 100 | 38.9 | 76.3 | > 100 | > 100 | > 100
NC(=O)c1ccc(N)nc1 | > 400 | > 400 | > 400 | > 400 | > 400 | > 400 | > 400 | > 400 | 201
CCOC(=O)Cn1c(=O)c2cc(C)cc3c(Cl)nc4c(OC)c(OC)cc1c4c32 | > 100 | > 100 | > 100 | > 100 | > 100 | > 100 |  | > 100 | > 100
COc1c(Cl)ccc(Cl)c1-c1nnc(-c2c(Cl)c(Cl)c(Cl)c(Cl)c2-c2nc3ccc(C(=O)c4ccccc4)cc3[nH]2)o1 | > 100 | > 100 |  | > 100 | > 100 | 78.5 | > 100 | > 100 | 87.4
O=c1[nH]nc(Nc2ccccc2)c2nnn(Cc3ccccc3)c12 | > 100 | > 100 | > 100 | > 100 | > 100 | > 100 | > 100 | > 100 | 
C=CCCCN1C(=O)C2C3c4ccccc4C(C=O)(c4ccccc43)C2C1=O (stereo not drawn) | 32.1 | 25.7 | 36.6 | 24.9 | 22.1 |  | > 100 | 26.3 | 28.5
O=C(O)CC(Cc1ccccc1)C(=O)O (stereo not drawn) | > 100 | > 100 | > 100 | > 100 | > 100 | > 100 | > 100 | > 100 | > 100
CCCCOP(=O)(OCCCC)C(NS(=O)(=O)c1ccccc1)(C(=O)OCC)C(F)(F)F (stereo not drawn) | > 100 |  | > 100 | 65 | 96.9 | 74.9 | > 100 | > 100 | 66.1
COc1cc2[nH]c(=O)[nH]c2c2c(C)c[nH]c12 | > 100 | > 100 | > 100 | > 100 | > 100 | > 100 | > 100 | > 100 | > 100
Cc1cc([C@H](C#N)c2nc3ccccc3s2)nc(Cl)n1 | > 100 |  | 20.5 | 12.4 | 10.4 | 35.1 | 31.6 | > 100 | 15.6
Nc1nc(-c2ccccc2)cc(-c2ccc(F)cc2)c1-c1ccc(Cl)cc1 | > 100 |  | > 100 | > 100 | > 100 | > 100 | > 100 | > 100 | > 100
O=C(OCc1ccccc1[N+](=O)[O-])N1c2ccccc2[C@@]23O[C@]24CCC[C@H]3C#C/C=C\C#C[C@H]14 | > 100 | > 100 | > 100 | > 100 | > 100 | > 100 | > 100 | > 100 | 
O=C1NC(N2CCOCC2)=N/C1=C\c1ccccc1 | > 100 | > 100 | > 100 | > 100 | > 100 | > 100 | > 100 | > 100 | > 100
CC(=O)O/N=C1\C=Cc2c(no[n+]2[O-])C1=O | > 100 | 32.8 | 30.2 |  | 36.2 | > 100 | 57.5 | 32.3 | 62
